# Data taken from patent US20160235778A1, “COMPOSITIONS CONTAINING PUFA, URIDINE AND CHOLINE AND METHODS OF USE THEREOF” (MASSACHUSETTS INSTITUTE OF TECHNOLOGY, priority 2014, published 2016).
# Legend:
# brain phospholipids [1] = assay: Brain phospholipid levels in pups of treated pregnant and nursing mothers; type: in vivo; details: rat pups
# Protocol: In another study, pregnant rats were allowed to consume ad libitum, for 10 days before parturition and 20 days while nursing, either a choline-containing control diet or this diet supplemented with uridine as UMP; half of each group also received DHA or its diluent daily, by gavage. Pups were then sacrificed and brain slices were examined to determine numbers of hippocampal dendritic spines.
# Pregnant and nursing rats were administered DHA and/or uridine as described in Example 9. At 20 days post-birth, rats were sacrificed and brain samples were obtained and assayed for phospholipids. Administration of DHA alone increased brain PC, PI, PE, and sphingomyelin (SM) per cell (DNA) by 36, 166, 38, and 78%, respectively. UMP markedly amplified the effects of DHA to 66, 210, 68, and 99% of control, respectively (Table 8). These increases were greater than those observed in adult animals. Similar results were obtained when normalizing to protein (Table 9). Thus, administration of DHA and/or uridine to pregnant and nursing mothers is able to increase phospholipid levels in the offspring.
# brain phospholipids [2] = assay: Brain phospholipid levels in gerbils given UMP diet and/or PUFA by gavage; type: in vivo, gerbil; design: PC / PE / PS / PI: unit not given here
# Protocol: Control standard diet (Table 4) consisted of Teklad Global 16% protein rodent diet (Harlan Teklad, Madison, Wis.), which contained 0.1% choline chloride (CC), corresponding to a daily dose of 50 mg/kg/day. UMP was provided as 0.5% UMP·2Na^+ weight/weight, added to the control diet, also prepared by Harlan Teklad, corresponding to 240 mg/kg/day UMP. DHA was administered as 300 mg/kg/day in 200 microliter (mcL)/day 5% Arabic Gum solution, while groups not receiving DHA were administered vehicle (5% Arabic Gum) alone. DHA was provided by Nu-Chek Prep (Elysian, MN) and UMP by Numico (Wagenigen, NL).
# Gerbils were anesthetized with ketamine and xylazine (80 and 10 mg/kg bwt, i.p.) and sacrificed by immersing the head into liquid nitrogen for 2 min, followed by decapitation. Brains were immediately and quickly (30 seconds) removed using a bone rongeur and stored at −80° C.
# Frozen brain hemispheres were weighed and homogenized in 100 volumes of ice-cold deionized water using a tissue degrader (Polytron PT 10-35, Kinematica AG, Switzerland), then analyzed as described in Example 1.
# Protein in whole brain homogenate sample was measured for using bicinchoninic acid reagent (Perkin Elmer, Norwalk, Conn., USA). DNA was measured by measuring 460 nm emission of samples on a fluorometer in the presence of bisbenzimidizole, a fluorescent dye known as Hoechst H 33258 (American Hoechst Corporation), which has an excitation maximum at 356 nm and an emission maximum of 458 when bound to DNA.
# Male gerbils weighing 80-100 g were divided into 4 groups of 8 gerbils and administered the supplements depicted in Table 1:
# Adult gerbils were administered control standard diet (Table 4) with our without 0.5% UMP and/or 300 mg/kg/day DHA, EPA, or AA. Groups not receiving DHA were administered vehicle (5% Arabic Gum) alone.
# [3] = postnatal day 20, normalized to DNA
# [4] = postnatal day 20, normalized to protein
# [5] = gerbil brain, 3 weeks, 0.5% UMP and/or 300 mg/kg/day PUFA, Table 6
# [6] = gerbil brain, 4 weeks, normalized to DNA levels, mean +/- SEM
# [7] = gerbil brain, 4 weeks, normalized to protein levels, mean +/- SEM
# [8] = gerbil, Table 5A study, vs control
compound,measurement,setting,value
"CCC=CCC=CCC=CCC=CCC=CCC=CCCC(=O)O [DHA, 4,7,10,13,16,19-docosahexaenoic acid]","PC, percent increase over control",brain phospholipids [1]; [3],36%
same,"PE, percent increase over control",brain phospholipids [1]; [3],38%
same,"PI, percent increase over control",brain phospholipids [1]; [3],166%
same,"SM, percent increase over control",brain phospholipids [1]; [3],78%
same,"Total Phospholipids, percent increase over control",brain phospholipids [1]; [3],30%
same,"PC, percent increase over control",brain phospholipids [1]; [4],23%
same,"PE, percent increase over control",brain phospholipids [1]; [4],24%
same,"PI, percent increase over control",brain phospholipids [1]; [4],141%
same,"SM, percent increase over control",brain phospholipids [1]; [4],59%
same,"Total Phospholipids, percent increase over control",brain phospholipids [1]; [4],16%
same,PC,brain phospholipids [2]; [5],133 ± 6
same,PE,brain phospholipids [2]; [5],77 ± 2
same,PI,brain phospholipids [2]; [5],18 ± 2
same,PS,brain phospholipids [2]; [5],34 ± 3
same,SM,brain phospholipids [2]; [5],24 ± 2
same,Total PL,brain phospholipids [2]; [5],344 ± 16
same,PC,brain phospholipids [2]; [6],366 ± 13
same,PE,brain phospholipids [2]; [6],196 ± 18
same,PI,brain phospholipids [2]; [6],84 ± 13
same,PS,brain phospholipids [2]; [6],98 ± 7
same,SM,brain phospholipids [2]; [6],126 ± 8
same,Total PL,brain phospholipids [2]; [6],909 ± 77
same,PC,brain phospholipids [2]; [7],185 ± 12
same,PE,brain phospholipids [2]; [7],78 ± 5
same,PI,brain phospholipids [2]; [7],32 ± 2
same,PS,brain phospholipids [2]; [7],39 ± 3
same,SM,brain phospholipids [2]; [7],56 ± 3
same,Total PL,brain phospholipids [2]; [7],392 ± 20
same,increase in levels of total phospholipids,"brain phospholipids [2]; gerbil brain, 4 weeks, vs control group",12%
same,PtdCho,"brain phospholipids [2]; gerbil brain, Table 5 part A",185 ± 12 nmol/mg prt
same,PtdEtn,"brain phospholipids [2]; gerbil brain, Table 5 part A",78 ± 5 nmol/mg prt
same,PtdIns,"brain phospholipids [2]; gerbil brain, Table 5 part A",32 ± 2 nmol/mg prt
same,PtdSer,"brain phospholipids [2]; gerbil brain, Table 5 part A",39 ± 3 nmol/mg prt
same,SM,"brain phospholipids [2]; gerbil brain, Table 5 part A",56 ± 3 nmol/mg prt
same,Total PL,"brain phospholipids [2]; gerbil brain, Table 5 part A",392 ± 20 nmol/mg prt
same,"brain phospholipid levels, in words","brain phospholipids [2]; gerbil, 3 weeks",increased phospholipid levels
same,increase in brain level of PC,brain phospholipids [2]; [8],22%
same,increase in brain level of PE,brain phospholipids [2]; [8],20%
same,increase in brain level of PI,brain phospholipids [2]; [8],52%
same,increase in brain level of sphingomyelin,brain phospholipids [2]; [8],24%
